Assay results: patent US11753418B2, “Compounds for the modulation of Myc activity” (Syros Pharmaceuticals, Inc., priority 2015, dated 2023)
Where a name gives a salt, the structure may show the parent alone.

Legend:
c-Myc/Max/Ebox DNA = molecular target: T1, c-Myc/Max/Ebox DNA (Homo sapiens, UniProt P01106); assay: c-Myc/Max/Ebox DNA AlphaScreen Assay; type: binding; conditions: free c-Myc 20 nM, his6-Max 5 nM, biotinylated Ebox oligo 10 nM, 2 hour incubation
T1 construct: his6 (cleaved yes)
Method in brief: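 Tag-free c-Myc (20 nM final) and biotinylated Ebox DNA (10 nM final) met compound first, then his6-Max was added; 2 h incubation in pH 8.0 HEPES buffer (150 mM NaCl, BSA, Tween20, glycogen, DTT), DMSO ≤2%. Ternary complex read as AlphaScreen signal between Ni-chelate acceptor and streptavidin donor beads.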

[1] = tested on: human small lung cancer cell line H2171; assay: Cell Viability Assay (ATPlite); type: cell-based; conditions: NCI-H2171, 72 h, H2171 cells, incubated for three days, ATPlite readout
Method: Compounds of the invention were assayed for cell viability using the human small lung cancer cell line H2171 as described in the following protocol. Cells were counted and adjusted to 20,000 cells/mL. Using a Biotek EL406, 50 μL of cells in media were distributed into 384 well white plates from Thermo. Immediately after plating, compound in DMSO was distributed to plates. Compounds were added to plates using a 50 nL 384 well pin transfer manifold on a Janus workstation. Stocks were arrayed in 10 point dose response in DMSO stock in 384 well Greiner compound plates. After the addition of compounds, plates were incubated for three days in a 37° C. incubator. Cell viability was read out using ATPlite from Perkin Elmer. Lyophilized powder was resuspended in lysis buffer and diluted 1:2 with deionized water. 25 μL of this solution was added to each well using the Biotek liquid handler. Plates were incubated for 15 minutes at room temperature before signal was read on an Envision Plate Reader. The data from this assay are summarized in Table 3 below (H2171 activity).

T1 sequence (P01106 whole entry): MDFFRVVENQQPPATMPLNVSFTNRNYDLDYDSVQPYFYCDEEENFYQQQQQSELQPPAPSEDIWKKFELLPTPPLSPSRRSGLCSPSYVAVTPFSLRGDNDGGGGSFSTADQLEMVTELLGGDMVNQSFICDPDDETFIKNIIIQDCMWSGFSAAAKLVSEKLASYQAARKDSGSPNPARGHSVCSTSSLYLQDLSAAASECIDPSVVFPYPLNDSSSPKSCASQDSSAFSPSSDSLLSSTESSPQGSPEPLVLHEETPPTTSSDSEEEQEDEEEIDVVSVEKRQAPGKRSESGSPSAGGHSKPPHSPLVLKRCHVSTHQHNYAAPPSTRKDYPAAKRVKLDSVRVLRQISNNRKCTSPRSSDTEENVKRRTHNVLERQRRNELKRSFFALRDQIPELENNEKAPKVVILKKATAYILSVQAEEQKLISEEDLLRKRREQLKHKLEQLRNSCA

SMILES	IC50 (c-Myc/Max/Ebox DNA) [µM]	IC50 [1] [µM]
CC[C@H](C)NCCC(=O)Nc1sc2c(c1-c1nc3c(C(F)F)nccc3s1)CCNC2 [Compound 226]	< 0.5	< 0.5
COCCNCCC(=O)Nc1sc2c(c1-c1nc3c(C)nc(C)cc3s1)CCNC2 [Compound 227, N-(3-(4,6-Dimethylthiazolo[4,5-c]pyridin-2-yl)-4,5,6,7-tetrahydrothieno[2,3-c]pyridin-2-yl)-3-((2-methoxyethyl)amino)propanamide dihydrochloride]	< 0.5	< 0.5
CCN1Cc2sc(NC(C)=O)c(-c3nc4cnccc4s3)c2C[C@H]1C [Compound 230, (R)—N-(6-ethyl-5-methyl-3-(thiazolo[4,5-c]pyridin-2-yl)-4,5,6,7-tetrahydrothieno[2,3-c]pyridin-2-yl)acetamide]	0.5 to 5	< 0.5
CCN1CCc2c(sc(NC(C)=O)c2-c2nc3cnccc3s2)[C@@H]1C [Compound 232, (S)—N-(6-ethyl-7-methyl-3-(thiazolo[4,5-c]pyridin-2-yl)-4,5,6,7-tetrahydrothieno[2,3-c]pyridin-2-yl)acetamide]	< 0.5	< 0.5
CC[C@H](C)N(CCC(=O)Nc1sc2c(c1-c1nc3cnccc3s1)CCNC2)Cc1ccccc1 [Compound 233, (S)-3-(Benzyl(sec-butyl)amino)-N-(3-(thiazolo[4,5-c]pyridin-2-yl)-4,5,6,7-tetrahydrothieno[2,3-c]pyridin-2-yl)propanamide hydrochloride]	5 to 25	0.5 to 5
CC[C@H](C)NCCC(=O)Nc1sc2c(c1-c1nc3cnccc3s1)CCN[C@H]2C [Compound 234, 3-(((S)-sec-butyl)amino)-N—((S)-7-methyl-3-(thiazolo[4,5-c]pyridin-2-yl)-4,5,6,7-tetrahydrothieno[2,3-c]pyridin-2-yl)propanamide]	< 0.5	< 0.5
CC(=O)Nc1sc2c(c1-c1nc3cnccc3s1)C[C@@H](C)N[C@H]2C [Compound 237]	0.5 to 5	0.5 to 5
CC[C@H](C)NCCC(=O)Nc1sc2c(c1-c1nc3cnccc3s1)CCN(CC)C2 [Compound 238, (S)-3-(sec-butylamino)-N-(6-ethyl-3-(thiazolo[4,5-c]pyridin-2-yl)-4,5,6,7-tetrahydrothieno[2,3-c]pyridin-2-yl)propanamide]	< 0.5	< 0.5
CC[C@H](C)NCCC(=O)Nc1sc2c(c1-c1nc3cnccc3s1)CCN(C(C)C)C2 [Compound 239, (S)-3-(sec-butylamino)-N-(6-isopropyl-3-(thiazolo[4,5-c]pyridin-2-yl)-4,5,6,7-tetrahydrothieno[2,3-c]pyridin-2-yl)propanamide]	< 0.5	< 0.5
COCCNCCC(=O)Nc1sc2c(c1-c1nc3c(C(F)F)nc(C)cc3s1)CCNC2 [Compound 245]	< 0.5	< 0.5
C[C@@H]1NCCc2c1sc(NC(=O)CCN[C@@H]1C[C@H]3CNC[C@H]3C1)c2-c1nc2cnccc2s1 [Compound 246, N—((S)-7-methyl-3-(thiazolo[4,5-c]pyridin-2-yl)-4,5,6,7-tetrahydrothieno[2,3-c]pyridin-2-yl)-3-(((3aR,5s,6aS)-octahydrocyclopenta[c]pyrrol-5-yl)amino)propanamide]	0.5 to 5	< 0.5

Now from value to compound:

IC50 (c-Myc/Max/Ebox DNA) [µM]	IC50 [1] [µM]	SMILES
< 0.5	< 0.5	CC(=O)Nc1sc2c(c1-c1nc3c(C)nc(C)cc3s1)CCNC2 [Compound 228, N-(3-(4,6-dimethylthiazolo[4,5-c]pyridin-2-yl)-4,5,6,7-tetrahydrothieno[2,3-c]pyridin-2-yl)acetamide hydrochloride]
0.5 to 5	< 0.5	CCN1Cc2sc(NC(C)=O)c(-c3nc4cnccc4s3)c2C[C@@H]1C [Compound 231, (S)—N-(6-ethyl-5-methyl-3-(thiazolo[4,5-c]pyridin-2-yl)-4,5,6,7-tetrahydrothieno[2,3-c]pyridin-2-yl)acetamide]
< 0.5	< 0.5	COCCNCCC(=O)Nc1sc2c(c1-c1nc3cnc(Cl)cc3s1)CCNC2 [Compound 243]
< 0.5	< 0.5	COCCNCCC(=O)Nc1sc2c(c1-c1nc3cnc(C)cc3s1)CCNC2 [Compound 244]
5 to 25	< 0.5	C[C@H]1Cc2c(sc(NC(=O)CCN[C@@H]3C[C@H]4CNC[C@H]4C3)c2-c2nc3cnccc3s2)CN1 [Compound 247, N—((S)-5-methyl-3-(thiazolo[4,5-c]pyridin-2-yl)-4,5,6,7-tetrahydrothieno[2,3-c]pyridin-2-yl)-3-(((3aR,5s,6aS)-octahydrocyclopenta[c]pyrrol-5-yl)amino)propanamide]
< 0.5	< 0.5	C[15NH]CCC(=O)Nc1sc2c(c1-c1nc3cnccc3s1)CCNC2 [Compound 248, 3-(Methylamino)-N-(3-(thiazolo[4,5-c]pyridin-2-yl)-4,5,6,7-tetrahydrothieno[2,3-c]pyridin-2-yl)propanamide]
< 0.5	< 0.5	C[C@H]1NCCc2c1sc(NC(=O)CCN[C@@H]1C[C@H]3CNC[C@H]3C1)c2-c1nc2cnccc2s1 [Compound 249, N—((R)-7-methyl-3-(thiazolo[4,5-c]pyridin-2-yl)-4,5,6,7-tetrahydrothieno[2,3-c]pyridin-2-yl)-3-(((3aR,5s,6aS)-octahydrocyclopenta[c]pyrrol-5-yl)amino)propanamide]
0.5 to 5	< 0.5	C[C@@H]1Cc2c(sc(NC(=O)CCN[C@@H]3C[C@H]4CNC[C@H]4C3)c2-c2nc3cnccc3s2)CN1 [Compound 250, N—((R)-5-methyl-3-(thiazolo[4,5-c]pyridin-2-yl)-4,5,6,7-tetrahydrothieno[2,3-c]pyridin-2-yl)-3-(((3aR,5s,6aS)-octahydrocyclopenta[c]pyrrol-5-yl)amino)propanamide]
< 0.5	< 0.5	CCC(C)NCCC(=O)[15NH]c1sc2c(c1-c1nc3cnccc3s1)CCNC2 (stereo not shown) [Compound 251, 3-(sec-Butylamino)-N-(3-(thiazolo[4,5-c]pyridin-2-yl)-4,5,6,7-tetrahydrothieno[2,3-c]pyridin-2-yl)propan-^15N-amide]
